PubChem BioAssay AID1259411 (Chemical Carcinogenesis Research Information System (CCRIS), 2018)
Calls of active or inactive are those of the source. How the calls were made is not given here.

Test system: rodent carcinogenicity bioassays, tumor incidence
Test: CCRIS carcinogenicity studies
How it was run: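 Archive of carcinogenicity, mutagenicity, tumor promotion and tumor inhibition results drawn from journals, NCI reports and other sources, expert-reviewed; covers 1985-2011 and is no longer updated.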

Structure (SMILES)	carcinogen call (Species: FISH, Strain/Sex: JAPANESE MEDAKA/MALE,FEMALE, Route: IMMERSION, Dose: 0, 0.133, 6.2, 18.58 MG/L IN WATER FOR UP TO 97 D (STUDY DURATION: 58 WK), Dose: 0, 0.133, 6.2, 18.58 MG/L IN WATER FOR UP TO 97 D (STUDY DURATION: 58 WK), Tumor Site: Type of Lesion: LIVER: HEPATOCELLULAR ADENOMA, HEPATOCELLULAR CARCINOMA, CHOLANGIOMA, CHOLANGIOCELLULAR CARCINOMA, GALL BLADDER: TUMOR)	carcinogen call (Species: FISH, Strain/Sex: SHASTA RAINBOW TROUT/MALE, FEMALE, Route: ORAL, Dose: 0, 2000 PPM IN DIET FOR 18 MO (STUDY DURATION: 18 MO), Tumor Site: Type of Lesion: STOMACH: PAPILLOMA)	carcinogen call (Species: MOUSE, Strain/Sex: B6C3F1/FEMALE, Route: GAVAGE, Dose: 0, 62, 107 MG/KG, TWA IN CORN OIL (STUDY DURATION: 78-90 WK), Dose: 0, 62, 107 MG/KG, TWA IN CORN OIL (STUDY DURATION: 78-90 WK), Tumor Site: Type of Lesion: LUNG: ALVEOLAR/BRONCHIOLAR ADENOMA, CARCINOMA, STOMACH: SQUAMOUS CELL CARCINOMA)	carcinogen call (Species: MOUSE, Strain/Sex: B6C3F1/FEMALE, Route: INHALATION, Dose: 0, 10, 40 PPM 6 HR/D, 5 D/WK FOR 90-103 WK (STUDY DURATION: 91-104 WK), Dose: 0, 10, 40 PPM 6 HR/D, 5 D/WK FOR 90-103 WK (STUDY DURATION: 91-104 WK), Tumor Site: Type of Lesion: INTEGUMENTARY SYSTEM (SUBCUTANEOUS TISSUE OR RIB): FIBROSARCOMA, NASAL CAVITY: CARCINOMA (NOS), CARCINOMA (NOS) OR ADENO)	carcinogen call (Species: MOUSE, Strain/Sex: B6C3F1/FEMALE, Route: INHALATION, Dose: 0, 10, 40 PPM 6 HR/D, 5 D/WK FOR 90-103 WK (STUDY DURATION: 91-104 WK), Dose: 0, 10, 40 PPM 6 HR/D, 5 D/WK FOR 90-103 WK (STUDY DURATION: 91-104 WK), Tumor Site: Type of Lesion: NASAL CAVITY: SQUAMOUS CELL PAPILLOMA, CARCINOMA)	carcinogen call (Species: MOUSE, Strain/Sex: B6C3F1/MALE, Route: GAVAGE, Dose: 0, 62, 107 MG/KG, TWA IN CORN OIL (STUDY DURATION: 77-78 WK), Dose: 0, 62, 107 MG/KG, TWA IN CORN OIL (STUDY DURATION: 77-78 WK), Tumor Site: Type of Lesion: LUNG: ALVEOLAR/BRONCHIOLAR ADENOMA, STOMACH: SQUAMOUS CELL PAPILLOMA, SQUAMOUS CELL CARCINOMA)	carcinogen call (Species: MOUSE, Strain/Sex: B6C3F1/MALE, Route: INHALATION, Dose: 0, 10, 40 PPM 6 HR/D, 5 D/WK FOR 78 WK (STUDY DURATION: 79 WK), Dose: 0, 10, 40 PPM 6 HR/D, 5 D/WK FOR 78 WK (STUDY DURATION: 79 WK), Tumor Site: Type of Lesion: LUNG: ALVEOLAR/BRONCHIOLAR ADENOMA, ALVEOLAR/BRONCHIOLAR CARCINOMA)	carcinogen call (Species: MOUSE, Strain/Sex: B6C3F1/MALE, Route: INHALATION, Dose: 0, 10, 40 PPM 6 HR/D, 5 D/WK FOR 90-103 WK (STUDY DURATION: 91-104 WK), Dose: 0, 10, 40 PPM 6 HR/D, 5 D/WK FOR 90-103 WK (STUDY DURATION: 91-104 WK), Tumor Site: Type of Lesion: NASAL CAVITY: SQUAMOUS CELL PAPILLOMA)	carcinogen call (Species: RAT, Strain/Sex: F344/FEMALE, Route: INHALATION, Dose: 0, 10, 40 PPM 6 HR/D, 5 D/WK FOR 91-103 WK (STUDY DURATION: 92-104 WK), Dose: 0, 10, 40 PPM 6 HR/D, 5 D/WK FOR 91-103 WK (STUDY DURATION: 92-104 WK), Tumor Site: Type of Lesion: NASAL CAVITY: ADENOMA (NOS), CARCINOMA (NOS), ADENOCARCINOMA (NOS);LUNG: ALVEOLAR/BRONCHIOLAR ADENOMA OR CARCINOMA;SPLEE)	carcinogen call (Species: RAT, Strain/Sex: F344/MALE, Route: INHALATION, Dose: 0, 10, 40 PPM 6 HR/D, 5 D/WK FOR 88-103 WK (STUDY DURATION: 89-104 WK), Dose: 0, 10, 40 PPM 6 HR/D, 5 D/WK FOR 88-103 WK (STUDY DURATION: 89-104 WK), Tumor Site: Type of Lesion: NASAL CAVITY: ADENOMA (NOS), ADENOCARCINOMA (NOS), CARCINOMA (NOS), ADENOMATOUS POLYP (NOS), CIRCULATORY SYSTEM: HEMANGI)	carcinogen call (Species: RAT, Strain/Sex: OSBORNE-MENDEL/FEMALE, Route: GAVAGE, Dose: 0, 37, 39 MG/KG, TWA IN CORN OIL (STUDY DURATION: 61 WK), Dose: 0, 37, 39 MG/KG, TWA IN CORN OIL (STUDY DURATION: 61 WK), Tumor Site: Type of Lesion: STOMACH: SQUAMOUS CELL CARCINOMA, LIVER: HEPATOCELLULAR CARCINOMA, NEOPLASTIC NODULE)	carcinogen call (Species: RAT, Strain/Sex: OSBORNE-MENDEL/MALE, Route: GAVAGE, Dose: 0, 38, 41 MG/KG, TWA IN CORN OIL (STUDY DURATION: 49 WK), Dose: 0, 38, 41 MG/KG, TWA IN CORN OIL (STUDY DURATION: 49 WK), Tumor Site: Type of Lesion: BLOOD VESSELS: HEMANGIOSARCOMA, STOMACH: SQUAMOUS CELL CARCINOMA)	carcinogen call (Species: RAT, Strain/Sex: SPRAGUE-DAWLEY/FEMALE, Route: INHALATION, Dose: 20 PPM 7 HR/D, 5 D/WK FOR 18 MO, Tumor Site: Type of Lesion: SPLEEN: HEMANGIOSARCOMA, ADRENAL GLAND: PHEOCHROMOCYTOMA, CORTICAL ADENOMA, CARCINOMA, MAMMARY GLAND: ADENOMA, FIBROADEN, Tumor Site: Type of Lesion: SPLEEN: HEMANGIOSARCOMA, ADRENAL GLAND: PHEOCHROMOCYTOMA, CORTICAL ADENOMA, CARCINOMA, MAMMARY GLAND: ADENOMA, FIBROADEN)	carcinogen call (Species: RAT, Strain/Sex: SPRAGUE-DAWLEY/MALE, Route: INHALATION, Dose: 20 PPM 7 HR/D, 5 D/WK FOR 18 MO, Tumor Site: Type of Lesion: SPLEEN: HEMANGIOSARCOMA, ADRENAL GLAND: PHEOCHROMOCYTOMA, CORTICAL ADENOMA, CARCINOMA, INTEGUMENTARY SYSTEM (SUBCUTANEOU, Tumor Site: Type of Lesion: SPLEEN: HEMANGIOSARCOMA, ADRENAL GLAND: PHEOCHROMOCYTOMA, CORTICAL ADENOMA, CARCINOMA, INTEGUMENTARY SYSTEM (SUBCUTANEOU)	carcinogen call (Species: MOUSE, Strain/Sex: SWISS-WEBSTER/FEMALE, Route: DERMAL, Dose: 0, 1% IN 0.1 ML DISTILLED WATER 1/WK FOR 19.5 MO (STUDY DURATION: 19.5 MO))	carcinogen call (Species: MOUSE, Strain/Sex: SWISS-WEBSTER/MALE, Route: DERMAL, Dose: 0, 1% IN 0.1 ML DISTILLED WATER 1/WK FOR 19.5 MO (STUDY DURATION: 19.5 MO))	carcinogen call (Species: RAT, Strain/Sex: WISTAR/FEMALE, Route: ORAL, Dose: 0, 50, 250, 1250 MG/KG IN THE DIET TO PUPS OF PARENTS EXPOSED TO THE SAME DOSE LEVELS FOR 60 D PRIOR TO MATING AND CONTI, Dose: 0, 50, 250, 1250 MG/KG IN THE DIET TO PUPS OF PARENTS EXPOSED TO THE SAME DOSE LEVELS FOR 60 D PRIOR TO MATING AND CONTI)	carcinogen call (Species: RAT, Strain/Sex: WISTAR/MALE, Route: ORAL, Dose: 0, 50, 250, 1250 MG/KG IN THE DIET TO PUPS OF PARENTS EXPOSED TO THE SAME DOSE LEVELS FOR 60 D PRIOR TO MATING AND CONTI, Dose: 0, 50, 250, 1250 MG/KG IN THE DIET TO PUPS OF PARENTS EXPOSED TO THE SAME DOSE LEVELS FOR 60 D PRIOR TO MATING AND CONTI)
BrCCBr	active; positive	active; positive	active; positive	active; positive	active; positive	active; positive	active; positive	active; positive	active; positive	active; positive	active; positive	active; positive	active; positive	active; positive				
O=S(=O)(O)c1ccc2c(N=Nc3ccc(S(=O)(=O)O)c4ccccc34)c(O)c(S(=O)(=O)O)cc2c1															inactive; negative	inactive; negative	inactive; negative	inactive; negative
